Legend:
3 persons = experiment: Sensory analysis of odor/smell, color and taste of reacted samples (Examples 55-62); type: in vivo; details: Example 57, after reaction; 10 ml KH2PO4, pH 7.8, 2.5 h, 120 °C
Procedure: The reaction partners were dissolved in water and then warmed glycerin (60° C.) was added. […]
The taste test was performed as in Example 38.
All samples were assessed at 22° C. after the Maillard reaction was stopped by placing the sealed vials in an ice bath. After 20 minutes in the ice bath the sealed vials were put in a water bath set to 22° C.
The odor/smell was assessed independently by 3 persons; the final description was agreed after discussion. […] The taste was assessed independently by 3 persons either in the original samples or after appropriate dilution to achieve relevant concentrations of sugars and steviol-glycosides (i.e. 5-9% SE); the final description was agreed after discussion.

[1] = Kinetics of reaction of Phe with Reb-A, Gluc, Xyl, Suc in dependence of pH-conditions, HPLC/MS (Example 55); type: physicochemical
Procedure: Quantitative evaluation was performed using external standardization.
Kinetics of Reaction in dependence of pH-conditions

panel of four people = experiment: Sensory test of Maillard reaction series in glycerol, buffer or dry conditions (Examples 50, 52); type: in vivo; design: key to Intensity of Smell: “+” for slight; “++” for moderate; “+++” for very strong
Procedure: The reaction partner (amino acid, carbohydrate source) were dissolved/suspended in the reaction solvent and transferred into a glass beaker filled with sand pre-heated for at least 30 minutes at the reaction temperature in a drying oven. After the planned reaction time, the vials were transferred into ice water. After cooling to room temperature, sensory analysis and analytical characterization was performed.
All tests were performed with negative controls (only reaction solvent, reaction solvent and amino acid, reaction solvent and carbohydrate).
Another series of experiments was performed in […] filled with 10 ml of reaction solvent. The reaction partner (amino acid, carbohydrate source) were dissolved/suspended in the reaction solvent and reflux heated for the time given on heating plates. After the planned reaction time, the flasks were transferred into ice water. After cooling to room temperature, sensory analysis and analytical characterization was performed.
Another series of experiments was performed in 20 ml sealed Pyrex vials. The reaction partner (amino acid, carbohydrate source) were finely grinded and mixed, then transferred in the Pyrex vial. A small volume of water was added and the reaction initiated in a drying oven. After the planned reaction time, the vials were transferred into ice water. After cooling to room temperature, sensory analysis and analytical characterization was performed.
For evaluation of the taste profile, the samples were tested by a panel of four people. 1 trained taster tasted independently the samples first. The taster was asked to describe the taste profile and score 0-5 according to the increasing sugar likeness, bitterness, aftertaste and lingering taste profiles. The first taster was allowed to re-taste, and then make notes for the sensory attributes perceived. Afterwards, another 3 tasters tasted and the attributes were noted and discussed openly to find a suitable description. In case that more than 1 taster disagreed with the results, the tasting was repeated. In some sensory test results (above), the taste rating was expressed by “+”, which means the intensity of the factors is shown by three levels. “+” for slight, “++” for moderate and “+++” for very strong.

[2] = Sensory evaluation of GSGs and SGs, thaumatin, NHDC and combinations in water (Example 255); details: combinations of EPCalin and NHDC in water, concentrations as in the sample name
Procedure: 4.5 ppm Thaumatin (equivalent to 10 ppm EPCalin) was dissolved in water. Increasing amounts of NHDC (1-5 ppm) were added to the solution and the sensory properties were evaluated.
50 ppm (GSGs and SGs) were dissolved in water. Increasing amounts of NHDC (1-5 ppm) were added to the solution and the sensory properties were evaluated.
50 ppm (GSGs and SGs) and 4.5 ppm Thaumatin (equivalent to 10 ppm EPCalin) were dissolved in water. Increasing amounts of NHDC (1-5 ppm) were added to the solution and the sensory properties were evaluated.

[3] = Assay to test reducing power (iron-III reduction), Example 64; type: biochemical; details: 100° C., 0-5.0 h, pH 7.8; compared with glucose or xylose
[4] = Assay to test DPPH radical-scavenging activity, Example 65; type: biochemical; details: 100° C., 0-5.0 h, pH 7.8; compared with glucose or xylose
Procedure: 1 mg 1,1-Diphenyl-2-picrylhydrazyl radical (DPPH)/ml ethanol, dilution to assay concentration were prepared in ethanol (40 μg/mL); Calibration samples were prepared with Ascorbic acid in a concentration of 0-10 μg/mL; as a negative control sample, water was used.
Samples in aqueous solution were used as such or diluted with water.
A 0.1 ml sample (or calibration standard) was mixed with 3.9 ml solution of DPPH (100 μMolar) and reacted while protected from light at room temperature for 30 min. Absorbance was determined at 517 nm against ethanol.
10 mM of amino acid and/or 10 mM sugar were dissolved in 10 ml 0.1 mM KH2PO4-buffer, pH=7.8.
The samples were kept at 100° C. in sealed glass vials (Pyrex 15 ml with screw caps) for 0 (before reaction), 2.5 or 5.0 hours. Thereafter the samples were transferred to an ice water bath and cooled down to room temperature. These samples were diluted 1:10 and used for the test assay for anti-oxidant potential.

[5] = reaction of Phe and Gluc, pH = 5.5
[6] = reaction of Phe and Gluc, pH = 7.0
[7] = reaction of Phe and Gluc, pH = 8.5
[8] = reaction of Phe and Reb-A, pH = 5.5
[9] = reaction of Phe and Reb-A, pH = 7.0
[10] = reaction of Phe and Reb-A, pH = 8.5
[11] = Table 52.2, 1 ml water + 9 ml Glycerin, 0.67 h, 100° C. (Table 50.2)
[12] = Table 52.5, 1 ml water + 9 ml Glycerin, 2.0 h, 120° C. (Table 50.5)
[13] = Table 52.3, 1 ml water + 9 ml Glycerin, 0.67 h, 100° C. (Table 50.3)
[14] = Table 52.6, Glycerin, 10 ml, 100° C., 40 min (Table 50.6)
[15] = Table 52.7, Glycerin, 10 ml, 1 h, 120° C. (Table 50.7)
[16] = Table 52.1, 1 ml water + 9 ml Glycerin, 1 h, 100° C. (Table 50.1)

In the case of `NC(Cc1ccccc1)C(=O)O` (single isomer, unassigned) [Phe], the Smell (3 persons) is reported as “Caramel, burnt”, the Taste (3 persons) is reported as “sweet” and the “% degradation” value [1, 5] is reported as 2.26%. For the same compound, the “% degradation” value [1, 6] was 2.18%, the “% degradation” value [1, 7] was 4.24% and the “% degradation” value [1, 8] was 1.97%. For the same compound, the “% degradation” value [1, 9] was 9.07%, the “% degradation” value [1, 10] was 12.8% and the “% degradation” value ([1]; reaction of Phe and Suc, pH = 5.5) was 5.50%. For the same compound, the “% degradation” value ([1]; reaction of Phe and Suc, pH = 7.0) was 5.19%, the “% degradation” value ([1]; reaction of Phe and Suc, pH = 8.5) was 5.36% and the “% degradation” value ([1]; reaction of Phe and Xyl, pH = 5.5) was 4.24%. For the same compound, the “% degradation” value ([1]; reaction of Phe and Xyl, pH = 7.0) was 4.80% and the “% degradation” value ([1]; reaction of Phe and Xyl, pH = 8.5) was 9.89%.
In the case of `C[C@H](N)C(=O)O` [0.1 mMol Ala], the Smell (panel of four people; [11]) is reported as “Agar” and the Taste (panel of four people; [11]) is reported as “sweet”.
In the case of `O=C[C@H](O)[C@H]1OC(=O)[C@@H](O)[C@H]1O` [0.1 mMol GlucLac], the “Intensity of Smell” value (panel of four people; [12]) is reported as “+++”, the Smell (panel of four people; [12]) is reported as “Burnt sugar” and the Taste (panel of four people; [12]) is reported as “Bitter”.
In the case of `NCCCC[C@H](N)C(=O)O` [0.1 mMol Lys], the Smell (panel of four people; [13]) is reported as “Popcorn” and the Taste (panel of four people; [13]) is reported as “Sweet”.
With `N[C@@H](Cc1ccccc1)C(=O)O` [0.1 mMol Phe] the Taste (panel of four people; [11]) was “sweet”, the “Intensity of Smell” value (panel of four people; [12]) was “+” and the Smell (panel of four people; [12]) was “Caramel, burnt”. The Taste (panel of four people; [12]) was “sweet”.
With `C=C1C[C@@]23CC[C@H]4[C@@](C)(CCC[C@@]4(C)C(=O)O[C@@H]4O[C@H](CO)[C@@H](O)[C@H](O)[C@H]4O)[C@@H]2CC[C@]1(O[C@@H]1O[C@H](CO)[C@@H](O)[C@H](O[C@@H]2O[C@H](CO)[C@@H](O)[C@H](O)[C@H]2O)[C@H]1O[C@@H]1O[C@H](CO)[C@@H](O)[C@H](O)[C@H]1O)C3` [0.05 mMol Reb-A] the Smell (panel of four people; [11]) was “neutral/unpleasant” and the Taste (panel of four people; [11]) was “sweet”.
With `N[C@@H](Cc1ccccc1)C(=O)O` [3.3 mMol Phe] the Smell (panel of four people; Table 52.6, Glycerin, 10 ml, 100° C., 5 min (Table 50.6)) was “Slightly bloomy”, the Smell (panel of four people; Table 52.6, Glycerin, 10 ml, 100° C., 10 min (Table 50.6)) was “flowery/bloomy” and the Smell (panel of four people; Table 52.6, Glycerin, 10 ml, 100° C., 20 min (Table 50.6)) was “flowery/bloomy”. The Smell (panel of four people; [14]) was “flowery/bloomy” and the Smell (panel of four people; [15]) was “flowery/bloomy”.
For `OC[C@H]1OC(O)[C@H](O)[C@@H](O)[C@@H]1O` (stereo partly shown) [10 mMol Glu], the Smell (panel of four people; [14]) was “Slightly Caramel” and the Smell (panel of four people; [15]) was “Slightly Caramel”.
In the case of `COc1ccc(CCC(=O)c2c(O)cc(O[C@@H]3O[C@H](CO)[C@@H](O)[C@H](O)[C@H]3O[C@@H]3O[C@@H](C)[C@H](O)[C@@H](O)[C@H]3O)cc2O)cc1O` [10 ppm NHDC], the Sensory evaluation [2] is reported as “Sweet, steep onset of sweetness, no lingering”.
For `N[C@@H](CCC(=O)O)C(=O)O` [167 mMol Glu], the Smell (panel of four people; [16]) was “caramel” and the Taste (panel of four people; [16]) was “Sweet”.
In the case of `OC[C@H]1OC(O)[C@H](O)[C@@H](O)[C@@H]1O` (stereo partly shown) [Glu], the Smell (3 persons) is reported as “Burnt sugar”, the Taste (3 persons) is reported as “Sweet/bitter” and the “% degradation” value [1, 5] is reported as 3.65%. The “% degradation” value [1, 6] was 4.6% and the “% degradation” value [1, 7] was 7.62%.
For `N[C@@H](Cc1ccccc1)C(=O)O` [Phe 60 mMol], the Smell (panel of four people; [16]) was “flowery/bloomy-caramel” and the Taste (panel of four people; [16]) was “Sweet”.
In the case of `C=C1C[C@@]23CC[C@H]4[C@@](C)(CCC[C@@]4(C)C(=O)O[C@@H]4O[C@H](CO)[C@@H](O)[C@H](O)[C@H]4O)[C@@H]2CC[C@]1(O[C@@H]1O[C@H](CO)[C@@H](O)[C@H](O[C@@H]2O[C@H](CO)[C@@H](O)[C@H](O)[C@H]2O)[C@H]1O[C@@H]1O[C@H](CO)[C@@H](O)[C@H](O)[C@H]1O)C3` [Reb-A, Rebaudioside A, reference compound], the “active iron-III reduction (anti-oxidant properties)” value [3] is reported as “substantial anti-oxidant properties”, the “radical scavenging properties (anti-oxidant properties)” value [4] is reported as “substantial anti-oxidant properties” and the “% degradation” value [1, 8] is reported as 8.25%. For the same compound, the “% degradation” value [1, 9] was 10.1% and the “% degradation” value [1, 10] was 12.6%.

— patent US11266170B2, “Sweetener and flavor compositions, methods of making and methods of use thereof” (EPC Natural Products Co., Ltd., priority 2018, dated 2022)
